Experimental data from ChEMBL document CHEMBL4680194, “Synthesis and biological evaluation of 1,2,4-triazole derivatives as potential neuroprotectant against ischemic brain injury” (Eur J Med Chem, 2020).
Activity calls are given as the source filed them. No cut-off for these calls is given here.

Tests used:
[1] = target: T1, Nuclear factor erythroid 2-related factor 2 (Rattus norvegicus) (UniProt O54968); assay: Induction of Nrf2 nuclear translocation in rat PC-12 cells assessed as H2O2-induced SOD level incubated for 1 hr followed by H2O2 stimulation and measured after 5 hrs; type: cell-based; conditions: dose 2.5-10 µM, time 6.0 hrs
T1 sequence (whole entry): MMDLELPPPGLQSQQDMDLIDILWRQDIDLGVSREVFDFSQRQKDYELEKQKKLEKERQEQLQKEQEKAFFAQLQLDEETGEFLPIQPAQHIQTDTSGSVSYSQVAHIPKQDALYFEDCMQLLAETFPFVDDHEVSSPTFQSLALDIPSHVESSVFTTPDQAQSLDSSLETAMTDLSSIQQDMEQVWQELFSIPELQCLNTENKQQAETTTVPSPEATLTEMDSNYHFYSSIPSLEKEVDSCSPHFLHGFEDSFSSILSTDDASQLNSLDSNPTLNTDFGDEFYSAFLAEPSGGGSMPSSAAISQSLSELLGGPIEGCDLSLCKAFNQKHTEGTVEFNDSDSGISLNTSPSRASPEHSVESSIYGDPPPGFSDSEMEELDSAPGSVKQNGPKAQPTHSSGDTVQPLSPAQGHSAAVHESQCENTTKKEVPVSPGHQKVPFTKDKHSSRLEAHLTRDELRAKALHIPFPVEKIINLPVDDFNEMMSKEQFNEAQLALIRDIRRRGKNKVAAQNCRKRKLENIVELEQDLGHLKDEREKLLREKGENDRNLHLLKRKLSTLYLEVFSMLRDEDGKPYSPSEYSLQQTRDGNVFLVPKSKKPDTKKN

Rattus norvegicus [2] = assay: Neuroprotective activity in Sprague-Dawley rat model of middle cerebral artery occlusion-induced ischemic injury assessed as infarction volume at 3 mg/kg, ip administered TID and measured after 6 hrs by TTC staining based assay (reference value: 28.67 +/- 2.90 %); type: functional
Rattus norvegicus [3] = assay: Neuroprotective activity in Sprague-Dawley rat model of middle cerebral artery occlusion-induced ischemic injury assessed as decrease in IL-1beta level at 3 to 30 mg/kg, ip administered TID and measured after 24 hrs by ELISA; type: functional, organism-based; conditions: dose 3-30 mg/kg
Rattus norvegicus [4] = assay: Neuroprotective activity in Sprague-Dawley rat model of middle cerebral artery occlusion-induced ischemic injury assessed as increase in MDA level at 3 to 30 mg/kg, ip administered TID and measured after 24 hrs by ELISA; type: functional, organism-based; conditions: dose 3-30 mg/kg
PC-12 [5] = assay: Cytoprotective activity against H2O2-induced cell death in rat PC-12 cells assessed as increase in cell viability incubated for 1 hr followed by H2O2 stimulation and measured after 5 hrs by LDH assay; type: functional, cell-based; conditions: time 6.0 hrs
[6] = target: T1, Nuclear factor erythroid 2-related factor 2 (Rattus norvegicus); assay: Induction of Nrf2 nuclear translocation in rat PC-12 cells assessed as SNP-induced GSH level at 5 uM incubated for 1 hr followed by SNP stimulation and measured after 24 hrs (reference value: 75.78 +/- 1.74 nM/mg); type: cell-based; conditions: time 25.0 hrs
[7] = Toxicity in […] assessed as body weight at 400 mg/kg, ip measured on day 5 (reference value: 24.4 to 28.4 g); type: organism-based; conditions: in vivo, 120 h, time 5 day
[8] = Tmax in Sprague-Dawley rat at 20 mg/kg, po measured upto 24 hrs by LC-MS/MS analysis; type: ADME, organism-based; conditions: in vivo
[9] = Tmax in Sprague-Dawley rat at 2 mg/kg, iv measured upto 24 hrs by LC-MS/MS analysis; type: ADME, organism-based; conditions: in vivo
Rattus norvegicus [10] = assay: Neuroprotective activity in Sprague-Dawley rat model of middle cerebral artery occlusion-induced ischemic injury assessed as improvement in behavioral changes at 3 to 30 mg/kg, ip administered TID and measured after 24 hrs; type: functional, organism-based; conditions: dose 3-30 mg/kg
[11] = target: T1, Nuclear factor erythroid 2-related factor 2 (Rattus norvegicus); assay: Induction of Nrf2 nuclear translocation in rat PC-12 cells assessed as SNP-induced SOD level at 10 uM incubated for 1 hr followed by SNP stimulation and measured after 24 hrs (reference value: 23.74 +/- 2.02 U/mg); type: cell-based; conditions: time 25.0 hrs
[12] = target: T1, Nuclear factor erythroid 2-related factor 2 (Rattus norvegicus); assay: Induction of Nrf2 nuclear translocation in rat PC-12 cells assessed as H2O2-induced GSH level incubated for 1 hr followed by H2O2 stimulation and measured after 5 hrs; type: cell-based; conditions: dose 2.5-10 µM, time 6.0 hrs
PC-12 [13] = assay: Inhibition of H2O2-induced apoptosis in rat PC-12 cells assessed as effect on cell morphology incubated for 1 hr followed by H2O2 stimulation and measured after 5 hrs by Hoechst 33258 staining based fluorescence microscopy; type: functional; conditions: dose 2.5-10 µM, time 6.0 hrs
[14] = Cmax in Sprague-Dawley rat at 20 mg/kg, po measured upto 24 hrs by LC-MS/MS analysis; type: ADME, organism-based; design: route oral, dose 20 mg/kg, time <=24; conditions: in vivo
[15] = target: T1, Nuclear factor erythroid 2-related factor 2 (Rattus norvegicus); assay: Induction of Nrf2 nuclear translocation in rat PC-12 cells assessed as H2O2-induced SOD level at 10 uM incubated for 1 hr followed by H2O2 stimulation and measured after 5 hrs (reference value: 29.69 +/- 1.65 U/mg); type: cell-based; conditions: time 6.0 hrs
[16] = target: T1, Nuclear factor erythroid 2-related factor 2 (Rattus norvegicus); assay: Induction of Nrf2 nuclear translocation in rat PC-12 cells assessed as SNP-induced GSH-px level at 5 uM incubated for 1 hr followed by SNP stimulation and measured after 24 hrs (reference value: 37.70 +/- 2.88 mU/mg); type: cell-based; conditions: time 25.0 hrs
[17] = target: T1, Nuclear factor erythroid 2-related factor 2 (Rattus norvegicus); assay: Induction of Nrf2 nuclear translocation in rat PC-12 cells assessed as H2O2-induced SOD level at 5 uM incubated for 1 hr followed by H2O2 stimulation and measured after 5 hrs (reference value: 29.69 +/- 1.65 U/mg); type: cell-based; conditions: time 6.0 hrs
[18] = target: T1, Nuclear factor erythroid 2-related factor 2 (Rattus norvegicus); assay: Induction of Nrf2 nuclear translocation in rat PC-12 cells assessed as increase in nuclear Nrf2 level at 1.25 to 5 uM incubated for 24 hrs by Western blot analysis; type: cell-based; conditions: dose 1.25-5 µM
PC-12 [19] = assay: Inhibition of SNP-induced apoptosis in rat PC-12 cells assessed as reduction in condensed nuclei incubated for 1 hr followed by SNP stimulation and measured after 24 hrs by Hoechst 33258 staining based fluorescence microscopy; type: functional, cell-based; conditions: dose 2.5-10 µM, time 25.0 hrs
[20] = target: T1, Nuclear factor erythroid 2-related factor 2 (Rattus norvegicus); assay: Induction of Nrf2 nuclear translocation in rat PC-12 cells assessed as SNP-induced GSH level incubated for 1 hr followed by SNP stimulation and measured after 24 hrs; type: cell-based; conditions: dose 2.5-10 µM, time 25.0 hrs
[21] = target: T1, Nuclear factor erythroid 2-related factor 2 (Rattus norvegicus); assay: Induction of Nrf2 nuclear translocation in rat PC-12 cells assessed as H2O2-induced GSH level at 5 uM incubated for 1 hr followed by H2O2 stimulation and measured after 5 hrs (reference value: 65.52 +/- 1.44 nM/mg); type: cell-based; conditions: time 6.0 hrs
[22] = target: T1, Nuclear factor erythroid 2-related factor 2 (Rattus norvegicus); assay: Induction of Nrf2 nuclear translocation in rat PC-12 cells assessed as SNP-induced SOD level at 2.5 uM incubated for 1 hr followed by SNP stimulation and measured after 24 hrs (reference value: 23.74 +/- 2.02 U/mg); type: cell-based; conditions: time 25.0 hrs
PC-12 [23] = assay: Antioxidant activity in rat PC-12 cells assessed as reduction in H2O2-induced ROS level incubated for 1 hr followed by H2O2 stimulation and measured after 5 hrs by DCFH-DA staining based fluorescence microscopy; type: functional, cell-based; conditions: dose 2.5-10 µM, time 6.0 hrs
Rattus norvegicus [24] = assay: Neuroprotective activity in Sprague-Dawley rat model of middle cerebral artery occlusion-induced ischemic injury assessed as infarction volume at 10 mg/kg, ip administered TID and measured after 6 hrs by TTC staining based assay (reference value: 28.67 +/- 2.90 %); type: functional

COc1ccc(-c2nc(-c3ccccc3O)n(-c3ccc(S(N)(=O)=O)cc3)n2)c(O)c1
Activity [1]: Dose-dependent effect
Activity (Rattus norvegicus [2]): 20.52%
Activity (Rattus norvegicus [3]): Active
Activity (Rattus norvegicus [4]): Active
Activity (PC-12 [5]): Dose-dependent effect
Activity [6]: 86.7 nM/mg
Activity [7]: 24.9 g
Tmax [8]: 2 h
Tmax [9]: 4.98 min
Activity (Rattus norvegicus [10]): Active
Activity [11]: 39.1 U/mg
Activity [12]: Dose-dependent effect
inhibition (PC-12 [13]): Dose-dependent effect
Cmax [14]: 2030 ng/mL
Activity [15]: 41.2 U/mg
Activity [16]: 44.4 mU/mg
Activity [17]: 38.9 U/mg
Activity [18]: Active
inhibition (PC-12 [19]): Dose-dependent effect
Activity [20]: Dose-dependent effect
Activity [21]: 72.5 nM/mg
Activity [22]: 34.6 U/mg
inhibition (PC-12 [23]): Dose-dependent effect
Activity (Rattus norvegicus [24]): 12.59%
